For 19 molecules, Ki and EC50 results are on record in US10196390B2, “TYK2 inhibitors and uses thereof” (Nimbus Lakshmi, Inc., priority 2014, dated 2019).

One assay has as its target JAK2 (Homo sapiens (Human), UniProt O60674). Put plainly: JAK2 activity inhibition assay (radioactive kinase assay / Caliper assay). It counts as biochemical. The settings on record: read-out: JAK2 Ki. Put shortly:
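Mobility-shift (Caliper) read-out of phosphorylated peptide substrate. Compound diluted in 25 mM HEPES pH 7.5, 0.01% Brij-35, 0.01% Triton, 0.5 mM EGTA; enzyme added, then peptide plus ATP in 10 mM MgCl2. Incubated 25 min at 28° C, stopped with EDTA buffer.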

The target of another assay is TYK2 (Homo sapiens (Human), UniProt P29597). Put plainly: Tyk2 activity inhibition assay (radioactive kinase assay / Caliper assay). It counts as biochemical. Put shortly: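 Radiometric format: TYK2 with peptide substrate (20 μM) and 33P-ATP at 10 μM in HEPES pH 7.5, 1% DMSO, 120 min at room temp, P81 paper capture. Caliper mobility-shift format: TYK2 9.75 nM, peptide 30 at 3 uM, ATP 16 uM (also 1 mM), 25 min at 28° C.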
TYK2, sequence (P29597 whole entry): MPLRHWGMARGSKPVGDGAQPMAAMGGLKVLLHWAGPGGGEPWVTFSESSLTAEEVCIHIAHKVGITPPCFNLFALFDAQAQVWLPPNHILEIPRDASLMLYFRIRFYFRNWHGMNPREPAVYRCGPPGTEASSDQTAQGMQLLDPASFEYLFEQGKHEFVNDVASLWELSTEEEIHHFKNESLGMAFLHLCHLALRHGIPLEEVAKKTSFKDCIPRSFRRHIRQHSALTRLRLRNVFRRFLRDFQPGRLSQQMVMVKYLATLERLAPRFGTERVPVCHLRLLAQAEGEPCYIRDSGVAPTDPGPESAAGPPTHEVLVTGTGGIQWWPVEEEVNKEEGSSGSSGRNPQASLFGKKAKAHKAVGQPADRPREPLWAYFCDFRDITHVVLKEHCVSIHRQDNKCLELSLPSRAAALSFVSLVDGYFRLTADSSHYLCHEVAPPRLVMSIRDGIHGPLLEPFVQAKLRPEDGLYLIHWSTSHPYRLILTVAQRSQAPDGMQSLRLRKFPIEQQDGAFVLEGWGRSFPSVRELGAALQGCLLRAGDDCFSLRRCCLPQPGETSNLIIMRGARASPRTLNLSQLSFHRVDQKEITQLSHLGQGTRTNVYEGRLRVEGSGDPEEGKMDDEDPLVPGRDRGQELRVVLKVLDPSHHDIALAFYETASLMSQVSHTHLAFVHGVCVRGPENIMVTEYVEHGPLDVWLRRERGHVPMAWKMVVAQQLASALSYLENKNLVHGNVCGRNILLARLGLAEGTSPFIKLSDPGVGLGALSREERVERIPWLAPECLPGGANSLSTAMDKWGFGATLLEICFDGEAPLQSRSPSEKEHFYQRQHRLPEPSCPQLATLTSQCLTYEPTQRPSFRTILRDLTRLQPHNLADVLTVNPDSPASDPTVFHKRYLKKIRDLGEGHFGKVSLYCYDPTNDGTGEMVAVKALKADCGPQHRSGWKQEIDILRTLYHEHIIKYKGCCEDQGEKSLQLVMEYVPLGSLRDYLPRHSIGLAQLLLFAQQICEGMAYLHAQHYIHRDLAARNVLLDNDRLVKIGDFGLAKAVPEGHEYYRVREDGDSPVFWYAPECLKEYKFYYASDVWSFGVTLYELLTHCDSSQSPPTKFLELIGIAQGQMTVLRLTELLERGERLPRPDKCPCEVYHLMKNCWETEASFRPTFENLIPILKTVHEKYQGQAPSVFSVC

The next assay concerns Tyk2-pSTAT4. The assay can be described thus: IL-12 induced pSTAT4 in human PBMC. The class given is cell-based. The settings on record: read-out: Tyk2-pSTAT4 EC50. Here is the method:
Human PBMC are isolated from buffy coat and are stored frozen for assays as needed. Cells for assay are thawed and resuspended in complete media containing serum, then cells are diluted to 1.67 E6 cells/ml so that 120 μl per well is 200,000 cells. 15 μl of compound or DMSO is added to the well at the desired concentrations and incubated at 1 hr at 37 C. 15 μl of stimulus (final concentration of 1.7 ng/mL IL-12) is added for 30 minutes prior to pSTAT4 and total STAT4 analysis using cell lysates prepared and analyzed by MSD reagents as per manufacturer protocol. The final DMSO concentration of compound in the assay is 0.1%.

The subject of the next assay is JAK2-pSTAT5. Put plainly: GM-CSF induced pSTAT5 in human PBMC. It counts as cell-based. To be noted: read-out: JAK2-pSTAT5 EC50. How it is done: Human PBMC are isolated from buffy coat and are stored frozen for assays as needed. […] 15 μl of compound or DMSO is added to the well at the desired concentrations and incubated at 1 hr at 37 C. 15 μl of stimulus (final concentration of 1.7 ng/mL IL-12) is added for 30 minutes prior to pSTAT4 and total STAT4 analysis using cell lysates prepared and analyzed by MSD reagents as per manufacturer protocol. The final DMSO concentration of compound in the assay is 0.1%.
Cells are prepared for analysis as in the above procedure and 15 μl of GM-CSF (final concentration 5 ng/mL) is added for 20 minutes prior to pSTAT5 and total STAT5 analysis using cell lysates prepared and analyzed by MSD reagents as per manufacturer protocol. The final DMSO concentration of compound in the assay is 0.1%.

[1] abbreviates: IL-12 induced pSTAT4, human PBMC.
Where [2] appears, read: GM-CSF induced pSTAT5, human PBMC.

Read-outs that look alike come from different tables or passages of the source. Where only a bound is given, the exact number is not on record here.

JAK2, sequence (O60674 whole entry): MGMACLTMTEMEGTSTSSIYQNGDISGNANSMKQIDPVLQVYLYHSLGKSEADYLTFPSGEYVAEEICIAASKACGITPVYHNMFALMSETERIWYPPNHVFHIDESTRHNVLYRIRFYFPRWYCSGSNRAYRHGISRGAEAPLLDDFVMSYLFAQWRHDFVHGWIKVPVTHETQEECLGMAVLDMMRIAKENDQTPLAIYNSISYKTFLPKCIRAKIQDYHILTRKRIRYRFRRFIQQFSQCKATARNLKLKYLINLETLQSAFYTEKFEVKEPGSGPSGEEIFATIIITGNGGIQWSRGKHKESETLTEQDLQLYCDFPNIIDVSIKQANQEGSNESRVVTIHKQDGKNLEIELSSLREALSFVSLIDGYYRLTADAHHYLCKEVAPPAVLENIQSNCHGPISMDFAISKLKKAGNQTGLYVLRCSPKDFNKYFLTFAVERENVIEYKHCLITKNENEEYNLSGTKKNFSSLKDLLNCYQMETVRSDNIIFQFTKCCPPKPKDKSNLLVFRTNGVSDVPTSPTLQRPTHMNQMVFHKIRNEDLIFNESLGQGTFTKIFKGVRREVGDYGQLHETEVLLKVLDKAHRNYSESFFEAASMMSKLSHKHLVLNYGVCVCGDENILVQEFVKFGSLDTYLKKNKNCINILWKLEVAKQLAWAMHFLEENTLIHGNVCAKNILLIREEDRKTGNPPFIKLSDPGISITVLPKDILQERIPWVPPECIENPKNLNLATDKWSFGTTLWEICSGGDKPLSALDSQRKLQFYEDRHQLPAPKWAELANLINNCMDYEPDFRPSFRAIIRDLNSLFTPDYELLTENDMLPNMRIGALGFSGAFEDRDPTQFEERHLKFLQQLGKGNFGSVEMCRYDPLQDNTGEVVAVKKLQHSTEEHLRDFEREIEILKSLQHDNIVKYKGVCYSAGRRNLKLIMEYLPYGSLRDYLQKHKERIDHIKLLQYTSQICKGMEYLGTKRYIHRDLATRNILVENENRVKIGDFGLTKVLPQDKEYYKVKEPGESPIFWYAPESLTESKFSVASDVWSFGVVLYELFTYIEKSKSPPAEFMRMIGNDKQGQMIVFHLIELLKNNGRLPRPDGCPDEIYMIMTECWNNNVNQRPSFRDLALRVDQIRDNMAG

Broadly, the Ki is the equilibrium dissociation constant of an inhibitor or competing ligand from its target. By EC50 is commonly meant the concentration at which the effect is half-maximal. As to `CC(C)NC(=O)c1ccc(Nc2cc(-c3c(F)cccc3F)nc3c2C(=O)NC3)nc1` [Compound I-138, 6-((2-(2,6-difluorophenyl)-5-oxo-6,7-dihydro-5H-pyrrolo[3,4-b]pyridin-4-yl)amino)-N-isopropylnicotinamide], the Ki is 10 to 100 nM on JAK2 and less than 10 nM at TYK2. Besides, the EC50 with Tyk2-pSTAT4 (Homo sapiens, PBMC) was less than 2000 nM; with JAK2-pSTAT5 (Homo sapiens, PBMC), 2000 to 20000 nM.

For `O=C(NCC(F)(F)F)c1ccc(Nc2cc(-c3c(F)cccc3F)nc3c2C(=O)NC3)nc1` [Compound I-140, 6-((2-(2,6-difluorophenyl)-5-oxo-6,7-dihydro-5H-pyrrolo[3,4-b]pyridin-4-yl)amino)-N-(2,2,2-trifluoroethyl)nicotinamide], the results for the Ki at JAK2 and at TYK2 were 10 to 100 nM and less than 10 nM, respectively. The EC50 was less than 2000 nM with Tyk2-pSTAT4 (setting [1]) and 2000 to 20000 nM with JAK2-pSTAT5 (setting [2]).

For the molecule `O=C1NCc2nc(-c3c(F)cccc3F)cc(Nc3ccc(N4CCC(N5CCOCC5)CC4)cn3)c21` [Compound I-142, 2-(2,6-difluorophenyl)-4-((5-(4-morpholinopiperidin-1-yl)pyridin-2-yl)amino)-6,7-dihydro-5H-pyrrolo[3,4-b]pyridin-5-one], the Ki at JAK2 was 10 to 100 nM; at TYK2, less than 10 nM. In addition, the EC50 with Tyk2-pSTAT4 (setting [1]) is less than 2000 nM; in the assay on JAK2-pSTAT5 (setting [2]) it was more than 20000 nM.

For the molecule `O=C1NCc2nc(-c3c(F)cccc3F)cc(Nc3ccc(N4CCC(O)CC4)cn3)c21` [Compound I-147, 2-(2,6-difluorophenyl)-4-((5-(4-hydroxypiperidin-1-yl)pyridin-2-yl)amino)-6,7-dihydro-5H-pyrrolo[3,4-b]pyridin-5-one], the Ki at JAK2 is 10 to 100 nM; at TYK2 it was less than 10 nM. For the same molecule, the EC50 in the assay with Tyk2-pSTAT4 (setting [1]) and with JAK2-pSTAT5 (setting [2]) was less than 2000 nM each time.

As to `O=C1NCc2nc(-c3c(F)cccc3F)cc(Nc3ccc(OCCN4CCOCC4)cn3)c21` [Compound I-148, 2-(2,6-difluorophenyl)-4-((5-(2-morpholinoethoxy)pyridin-2-yl)amino)-6,7-dihydro-5H-pyrrolo[3,4-b]pyridin-5-one], the results for the inhibition constant Ki at JAK2 and at TYK2 were 10 to 100 nM and less than 10 nM, respectively. Further, the EC50 in the assay on Tyk2-pSTAT4 (setting [1]) is less than 2000 nM; in the assay on JAK2-pSTAT5 (setting [2]), 2000 to 20000 nM.

On to `CN1CCC(C)(c2ccc(Nc3nc(-c4c(F)cccc4F)nc4c3C(=O)NC4)cc2)C1=O` (stereo not shown) [Compound I-150, 2-(2,6-difluorophenyl)-4-((4-(1,3-dimethyl-2-oxopyrrolidin-3-yl)phenyl)amino)-6,7-dihydro-5H-pyrrolo[3,4-d]pyrimidin-5-one], for which the Ki on JAK2 is 10 to 100 nM; at TYK2 it was less than 10 nM. Also, the results for the EC50 in the assay on Tyk2-pSTAT4 (setting [1]) and in the assay with JAK2-pSTAT5 (setting [2]) were less than 2000 nM and 2000 to 20000 nM, respectively.

Take `O=C1NCc2nc(-c3c(F)cccc3F)nc(Nc3ccc([C@H]4CCCNC4=O)cc3)c21` [Compound I-154, (R)-2-(2,6-difluorophenyl)-4-((4-(2-oxopiperidin-3-yl)phenyl)amino)-6,7-dihydro-5H-pyrrolo[3,4-d]pyrimidin-5-one]: the values for the Ki on JAK2 and on TYK2 were 100 to 1000 nM and less than 10 nM, respectively. Besides, the EC50 with Tyk2-pSTAT4 (setting [1]) is less than 2000 nM; in the assay on JAK2-pSTAT5 (setting [2]), more than 20000 nM.

As for `CC(C)(O)CN1CCC(c2ccc(Nc3nc(-c4c(F)cccc4F)nc4c3C(=O)NC4)cc2)C1=O` (stereo not shown) [Compound I-161, 2-(2,6-difluorophenyl)-4-((4-(1-(2-hydroxy-2-methylpropyl)-2-oxopyrrolidin-3-yl)phenyl)amino)-6,7-dihydro-5H-pyrrolo[3,4-d]pyrimidin-5-one], the Ki at JAK2 was 100 to 1000 nM; at TYK2, less than 10 nM. The EC50 is less than 2000 nM with Tyk2-pSTAT4 (setting [1]) and 2000 to 20000 nM in the assay with JAK2-pSTAT5 (setting [2]).

For the molecule `CN1CCN(c2ccc(Nc3cc(-c4c(F)cccc4F)nc4c3C(=O)NC4)nc2)CC1` [Compound I-163, 2-(2,6-difluorophenyl)-4-((5-(4-methylpiperazin-1-yl)pyridin-2-yl)amino)-6,7-dihydro-5H-pyrrolo[3,4-b]pyridin-5-one], the Ki on JAK2 was 10 to 100 nM; at TYK2 it was less than 10 nM. The EC50 with Tyk2-pSTAT4 (setting [1]) is less than 2000 nM; in the assay on JAK2-pSTAT5 (setting [2]) it was 2000 to 20000 nM.

Consider `COc1ccc(Nc2cc(-c3c(F)cccc3F)nc3c2C(=O)NC3)nc1` [Compound I-167, 2-(2,6-difluorophenyl)-4-((5-methoxypyridin-2-yl)amino)-6,7-dihydro-5H-pyrrolo[3,4-b]pyridin-5-one], for which the Ki is 100 to 1000 nM at JAK2 and less than 10 nM on TYK2. Further, the values for the EC50 with Tyk2-pSTAT4 (setting [1]) and in the assay on JAK2-pSTAT5 (setting [2]) were less than 2000 nM and more than 20000 nM, respectively.

In the case of `COc1ccc(Nc2cc(-c3c(F)cccc3F)nc3c2C(=O)NC3)nc1OC` [Compound I-170, 2-(2,6-difluorophenyl)-4-((5,6-dimethoxypyridin-2-yl)amino)-6,7-dihydro-5H-pyrrolo[3,4-b]pyridin-5-one], the inhibition constant Ki at JAK2 is 10 to 100 nM; at TYK2, less than 10 nM. For the same molecule, the figures for the EC50 in the assay with Tyk2-pSTAT4 (setting [1]) and in the assay with JAK2-pSTAT5 (setting [2]) were less than 2000 nM and 2000 to 20000 nM, respectively.

As for `O=C1NCc2nc(-c3c(F)cccc3F)cc(Nc3ccc(N4CCOCC4)cn3)c21` [Compound I-171, 2-(2,6-difluorophenyl)-4-((5-morpholinopyridin-2-yl)amino)-6,7-dihydro-5H-pyrrolo[3,4-b]pyridin-5-one], the Ki on JAK2 was 10 to 100 nM; on TYK2, less than 10 nM. Besides, the EC50 in the assay on Tyk2-pSTAT4 (setting [1]) was less than 2000 nM; in the assay with JAK2-pSTAT5 (setting [2]), 2000 to 20000 nM.

For the molecule `O=C1NCc2nc(-c3c(F)cccc3F)cc(Nc3ccc(N4CCC(F)(F)CC4)cn3)c21` [Compound I-182, 2-(2,6-difluorophenyl)-4-((5-(4,4-difluoropiperidin-1-yl)pyridin-2-yl)amino)-6,7-dihydro-5H-pyrrolo[3,4-b]pyridin-5-one], the Ki on JAK2 was 10 to 100 nM; at TYK2 it was less than 10 nM. In addition, the results for the EC50 with Tyk2-pSTAT4 (setting [1]) and in the assay on JAK2-pSTAT5 (setting [2]) were less than 2000 nM and 2000 to 20000 nM, respectively.

Take `CC(C)(C(=O)N1CCCC1)c1ccc(Nc2nc(-c3c(F)cccc3F)nc3c2C(=O)NC3)cc1` [Compound I-196, 2-(2,6-difluorophenyl)-4-((4-(2-methyl-1-oxo-1-(pyrrolidin-1-yl)propan-2-yl)phenyl)amino)-6,7-dihydro-5H-pyrrolo[3,4-d]pyrimidin-5-one]: the Ki is 100 to 1000 nM on JAK2 and less than 10 nM at TYK2. Further, the values for the EC50 in the assay with Tyk2-pSTAT4 (setting [1]) and in the assay on JAK2-pSTAT5 (setting [2]) were less than 2000 nM and more than 20000 nM, respectively.

Consider `C[C@H](C(=O)N1CCCCC1)c1ccc(Nc2nc(-c3c(F)cccc3F)nc3c2C(=O)NC3)cc1` [Compound I-206, (S)-2-(2,6-difluorophenyl)-4-((4-(1-oxo-1-(piperidin-1-yl)propan-2-yl)phenyl)amino)-6,7-dihydro-5H-pyrrolo[3,4-d]pyrimidin-5-one], for which the Ki on JAK2 was 100 to 1000 nM; on TYK2, less than 10 nM. Besides, the EC50 with Tyk2-pSTAT4 (Homo sapiens, PBMC) was less than 2000 nM; in the assay with JAK2-pSTAT5 (Homo sapiens, PBMC), more than 20000 nM.

Consider `C[C@@H](C(=O)N1CCCCC1)c1ccc(Nc2nc(-c3c(F)cccc3F)nc3c2C(=O)NC3)cc1` [Compound I-207, (R)-2-(2,6-difluorophenyl)-4-((4-(1-oxo-1-(piperidin-1-yl)propan-2-yl)phenyl)amino)-6,7-dihydro-5H-pyrrolo[3,4-d]pyrimidin-5-one], for which the Ki was 100 to 1000 nM on JAK2 and less than 10 nM at TYK2. Further, the EC50 was less than 2000 nM in the assay with Tyk2-pSTAT4 (Homo sapiens, PBMC) and 2000 to 20000 nM with JAK2-pSTAT5 (Homo sapiens, PBMC).

`O=C1NCc2nc(-c3c(F)cccc3F)cc(Nc3ccc(N4CC(O)C4)cn3)c21` [Compound I-214, 2-(2,6-difluorophenyl)-4-((5-(3-hydroxyazetidin-1-yl)pyridin-2-yl)amino)-6,7-dihydro-5H-pyrrolo[3,4-b]pyridin-5-one]: the Ki at JAK2 is 10 to 100 nM; on TYK2, less than 10 nM. The half-maximal effective concentration (EC50) in the assay on Tyk2-pSTAT4 (setting [1]) was less than 2000 nM; with JAK2-pSTAT5 (setting [2]) it was 2000 to 20000 nM.

In the case of `CC(C)(C)N1CCN(c2ccc(Nc3cc(-c4c(F)cccc4F)nc4c3C(=O)NC4)nc2)CC1` [Compound I-227, 4-((5-(4-(tert-butyl)piperazin-1-yl)pyridin-2-yl)amino)-2-(2,6-difluorophenyl)-6,7-dihydro-5H-pyrrolo[3,4-b]pyridin-5-one], the Ki at JAK2 and at TYK2 was less than 10 nM throughout. In addition, the concentration for a half-maximal effect (EC50) in the assay on Tyk2-pSTAT4 (setting [1]) and in the assay on JAK2-pSTAT5 (setting [2]) was less than 2000 nM in each case.

Turning to `O=C1NCc2nc(-c3c(F)cccc3F)cc(Nc3ccc(C(=O)N4CCOCC4)cc3)c21` [Compound I-231, 2-(2,6-difluorophenyl)-4-((4-(morpholine-4-carbonyl)-phenyl)amino)-6,7-dihydro-5H-pyrrolo[3,4-b]pyridin-5-one], the values for the Ki at JAK2 and at TYK2 were 10 to 100 nM and less than 10 nM, respectively. Further, the EC50 with Tyk2-pSTAT4 (Homo sapiens, PBMC) was less than 2000 nM; in the assay on JAK2-pSTAT5 (setting [2]), 2000 to 20000 nM.
